In patent US9255100B2 (BAYER INTELLECTUAL PROPERTY GMBH, priority 2010, dated 2016) one finds IC50 data, which are given here for 25 compounds.

A word on the IC50: it is the point on the concentration scale where inhibition reaches its midpoint.

The target in the assay is T1, N-terminally GST-tagged human full length recombinant Mps-1 kinase (Homo sapiens, UniProt P33981).
T1 construct: N-terminally GST-tagged human full length recombinant Mps-1 kinase; purchased Invitrogen, Karslruhe, Germany PV4071
T1 sequence (P33981 1-857): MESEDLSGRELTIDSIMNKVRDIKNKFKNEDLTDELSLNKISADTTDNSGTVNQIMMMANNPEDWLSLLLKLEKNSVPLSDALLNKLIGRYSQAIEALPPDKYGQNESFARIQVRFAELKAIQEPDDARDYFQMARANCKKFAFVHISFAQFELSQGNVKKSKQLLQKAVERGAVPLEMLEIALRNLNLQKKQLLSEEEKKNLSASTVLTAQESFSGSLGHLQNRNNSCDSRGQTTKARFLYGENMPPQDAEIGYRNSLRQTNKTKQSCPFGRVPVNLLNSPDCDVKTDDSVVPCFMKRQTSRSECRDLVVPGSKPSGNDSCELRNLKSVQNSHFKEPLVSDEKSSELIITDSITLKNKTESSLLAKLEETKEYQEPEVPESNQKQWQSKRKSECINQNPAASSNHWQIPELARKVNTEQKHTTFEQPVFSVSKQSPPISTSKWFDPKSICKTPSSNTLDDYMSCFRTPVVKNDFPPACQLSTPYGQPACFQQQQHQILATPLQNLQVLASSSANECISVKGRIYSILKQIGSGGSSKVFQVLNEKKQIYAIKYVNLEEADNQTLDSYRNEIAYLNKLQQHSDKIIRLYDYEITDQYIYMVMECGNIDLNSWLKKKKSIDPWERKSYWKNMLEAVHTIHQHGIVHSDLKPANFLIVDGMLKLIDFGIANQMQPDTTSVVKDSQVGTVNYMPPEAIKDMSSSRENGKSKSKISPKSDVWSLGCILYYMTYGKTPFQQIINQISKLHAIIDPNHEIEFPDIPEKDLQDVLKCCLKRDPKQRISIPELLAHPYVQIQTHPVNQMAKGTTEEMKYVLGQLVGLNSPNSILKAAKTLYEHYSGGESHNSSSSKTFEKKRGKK
As to the kind of experiment: Mps-1 kinase assay (TR-FRET). The format is biochemical. Conditions: Mps1 IC50 [nM], 10 μM ATP, 1 μM peptide substrate, 60 min at 22° C. The essentials: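 TR-FRET signal between a Europium anti-phospho-Ser/Thr antibody and streptavidin-XLent reported phosphorylation of a biotinylated peptide by GST-tagged full-length Mps-1. Enzyme was near 1 nM final, chosen per lot for linearity.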
A general note: Time-resolved FRET reads energy transfer from a long-lived donor to a nearby acceptor.
Regarding `Cc1cc(-c2cnc3c(NCCC(F)(F)F)cc(Sc4cc(F)ccc4F)nn23)ccc1C(=O)NC1CC1` [Example 255, N-cyclopropyl-4-{6-[(2,5-difluorophenyl)sulfanyl]-8-[(3,3,3-trifluoropropyl)amino]imidazo[1,2-b]pyridazin-3-yl}-2-methylbenzamide], the IC50 was 0.2 nM. Turning to `Cc1cc(-c2cnc3c(NCC(C)(C)O)cc(Oc4ccc(OC(C)C)cc4)nn23)ccc1C(=O)NC1CC1` [Example 256, N-cyclopropyl-4-{8-[(2-hydroxy-2-methylpropyl)amino]-6-(4-isopropoxyphenoxy)imidazo[1,2-b]pyridazin-3-yl}-2-methylbenzamide], the IC50 stood at 0.2 nM.

With `Cc1cc(-c2cnc3c(NCCC(F)(F)F)cc(Oc4ccc(OC(C)C)cc4)nn23)ccc1C(=O)NC1CC1` [Example 257, N-cyclopropyl-4-{6-(4-isopropoxyphenoxy)-8-[(3,3,3-trifluoropropyl)amino]imidazo[1,2-b]pyridazin-3-yl}-2-methylbenzamide], the half-inhibitory concentration (IC50) came to 0.4 nM.

In the case of `Cc1cc(-c2cnc3c(NCCC(F)(F)F)cc(Oc4cccc(F)c4F)nn23)ccc1C(=O)NC1CC1` [Example 258, N-cyclopropyl-4-{6-(2,3-difluorophenoxy)-8-[(3,3,3-trifluoropropyl)amino]imidazo[1,2-b]pyridazin-3-yl}-2-methylbenzamide], the IC50 amounted to 0.2 nM. `Cc1ccc(F)c(Oc2cc(NCCC(F)(F)F)c3ncc(-c4ccc(C(=O)NC5CC5)c(C)c4)n3n2)c1` [Example 259, N-cyclopropyl-4-{6-(2-fluoro-5-methylphenoxy)-8-[(3,3,3-trifluoropropyl)amino]imidazo[1,2-b]pyridazin-3-yl}-2-methylbenzamide]: the IC50 turned out to be 0.3 nM. Regarding `Cc1cc(-c2cnc3c(NCCC(F)(F)F)cc(Oc4ccc(F)c(F)c4)nn23)ccc1C(=O)NC1CC1` [Example 260, N-cyclopropyl-4-{6-(3,4-difluorophenoxy)-8-[(3,3,3-trifluoropropyl)amino]imidazo[1,2-b]pyridazin-3-yl}-2-methylbenzamide], the IC50 worked out at 0.2 nM. Take `Cc1cc(-c2cnc3c(NCC(C)(C)O)cc(Sc4cccs4)nn23)ccc1C(=O)NC1CC1` [Example 261, N-cyclopropyl-4-{8-[(2-hydroxy-2-methylpropyl)amino]-6-(2-thienylsulfanyl)imidazo[1,2-b]pyridazin-3-yl}-2-methylbenzamide]: the IC50 was found to be 0.5 nM. As for `Cc1cc(-c2cnc3c(NCC(C)(C)O)cc(Oc4cc(F)cc(F)c4)nn23)ccc1C(=O)NC1CC1` [Example 262, N-cyclopropyl-4-{6-(3,5-difluorophenoxy)-8-[(2-hydroxy-2-methylpropyl)amino]imidazo[1,2-b]pyridazin-3-yl}-2-methylbenzamide], the IC50 is 0.2 nM. For `Cc1cc(-c2cnc3c(NCC(C)(C)O)cc(O[C@H]4CCNC4=O)nn23)ccc1C(=O)NC1CC1` [Example 263, N-cyclopropyl-4-(8-[(2-hydroxy-2-methylpropyl)amino]-6-{[(3S)-2-oxopyrrolidin-3-yl]oxy}imidazo[1,2-b]pyridazin-3-yl)-2-methylbenzamide], the IC50 came out at 32.4 nM. The same measure for `Cc1ccc(Oc2cc(NCC(C)(C)O)c3ncc(-c4ccc(C(=O)NC5CC5)c(C)c4)n3n2)cn1` [Example 264, N-cyclopropyl-4-{8-[(2-hydroxy-2-methylpropyl)amino]-6-[(6-methylpyridin-3-yl)oxy]imidazo[1,2-b]pyridazin-3-yl}-2-methylbenzamide]: 2 nM; for `Cc1cc(-c2cnc3c(NCC(C)(C)O)cc(Oc4cncnc4)nn23)ccc1C(=O)NC1CC1` [Example 265, N-cyclopropyl-4-{8-[(2-hydroxy-2-methylpropyl)amino]-6-(pyrimidin-5-yloxy)imidazo[1,2-b]pyridazin-3-yl}-2-methylbenzamide]: 0.9 nM. The figure for `Cc1cc(-c2cnc3c(NCCC(F)(F)F)cc(Oc4cccc(Cl)c4)nn23)ccc1C(=O)NC1CC1` [Example 266, 4-{6-(3-chlorophenoxy)-8-[(3,3,3-trifluoropropyl)amino]imidazo[1,2-b]pyridazin-3-yl}-N-cyclopropyl-2-methylbenzamide] is 0.3 nM; for `Cc1cc(-c2cnc3c(NCCC(F)(F)F)cc(Oc4ccc(Cl)cc4)nn23)ccc1C(=O)NC1CC1` [Example 267, 4-{6-(4-chlorophenoxy)-8-[(3,3,3-trifluoropropyl)amino]imidazo[1,2-b]pyridazin-3-yl}-N-cyclopropyl-2-methylbenzamide] it is 0.3 nM. With `Cc1cc(-c2cnc3c(NCCC(F)(F)F)cc(Sc4ccccc4F)nn23)ccc1C(=O)NC1CC1` [Example 268, N-cyclopropyl-4-{6-[(2-fluorophenyl)sulfanyl]-8-[(3,3,3-trifluoropropyl)amino]imidazo[1,2-b]pyridazin-3-yl}-2-methylbenzamide], the IC50 amounted to 0.2 nM. For the compound `Cc1ccc(F)cc1Sc1cc(NCCC(F)(F)F)c2ncc(-c3ccc(C(=O)NC4CC4)c(C)c3)n2n1` [Example 269, N-cyclopropyl-4-{6-[(5-fluoro-2-methylphenyl)sulfanyl]-8-[(3,3,3-trifluoropropyl)amino]imidazo[1,2-b]pyridazin-3-yl}-2-methylbenzamide], the IC50 was 0.3 nM. Regarding `Cc1cc(-c2cnc3c(NCCC(F)(F)F)cc(Sc4ccccc4CO)nn23)ccc1C(=O)NC1CC1` [Example 270, N-cyclopropyl-4-(6-{[2-(hydroxymethyl)phenyl]sulfanyl}-8-[(3,3,3-trifluoropropyl)amino]imidazo[1,2-b]pyridazin-3-yl)-2-methylbenzamide], the IC50 came out at 0.1 nM. On to `Cc1cc(-c2cnc3c(NCC(C)(C)O)cc(Sc4cccc(OC(C)C)c4)nn23)ccc1C(=O)NC1CC1` [Example 271], for which the IC50 amounted to 1 nM. The figure for `Cc1cc(-c2cnc3c(NCC(C)(C)O)cc(Sc4cccc(C(C)C)c4)nn23)ccc1C(=O)NC1CC1` [Example 273, N-cyclopropyl-4-{8-[(2-hydroxy-2-methylpropyl)amino]-6-[(3-isopropylphenyl)sulfanyl]imidazo[1,2-b]pyridazin-3-yl}-2-methylbenzamide] is 0.5 nM; for `Cc1cc(-c2cnc3c(NCC(C)(C)O)cc(Oc4ccccn4)nn23)ccc1C(=O)NC1CC1` [Example 274, N-cyclopropyl-4-{8-[(2-hydroxy-2-methylpropyl)amino]-6-(pyridin-2-yloxy)imidazo[1,2-b]pyridazin-3-yl}-2-methylbenzamide] it is 73.8 nM. For the compound `Cc1cc(-c2cnc3c(NCC(C)(C)O)cc(Oc4cccc(OCC(C)(C)O)c4)nn23)ccc1C(=O)NC1CC1` [Example 275, N-cyclopropyl-4-{6-[3-(2-hydroxy-2-methylpropoxy)phenoxy]-8-[(2-hydroxy-2-methylpropyl)amino]imidazo[1,2-b]pyridazin-3-yl}-2-methylbenzamide], the concentration for half-maximal inhibition (IC50) came out at 5.4 nM. For `Cc1cc(-c2cnc3c(NCCO)cc(Sc4cccc(F)c4)nn23)ccc1C(=O)NC1CC1` [Example 276, N-cyclopropyl-4-{6-[(3-fluorophenyl)sulfanyl]-8-[(2-hydroxyethyl)amino]imidazo[1,2-b]pyridazin-3-yl}-2-methylbenzamide], the IC50 was 0.1 nM. Consider `Cc1cc(-c2cnc3c(NCCO)cc(Oc4cccc(F)c4)nn23)ccc1C(=O)NC1CC1` [Example 277, N-cyclopropyl-4-{6-(3-fluorophenoxy)-8-[(2-hydroxyethyl)amino]imidazo[1,2-b]pyridazin-3-yl}-2-methylbenzamide], for which the 50% inhibitory concentration (IC50) was under 0.1 nM. On to `Cc1cc(-c2cnc3c(NCCC(F)(F)F)cc(OCC(F)(F)C(F)(F)CO)nn23)ccc1C(=O)NC1CC1` [Example 278A, N-cyclopropyl-2-methyl-4-{6-(2,2,3,3-tetrafluoro-4-hydroxybutoxy)-8-[(3,3,3-trifluoropropyl)amino]imidazo[1,2-b]pyridazin-3-yl}benzamide], for which the IC50 was found to be 0.4 nM. Regarding `Cc1cc(-c2cnc3c(NCCC(F)(F)F)cc(O/C=C(/F)C(F)(F)CO)nn23)ccc1C(=O)NC1CC1` [Example 278B, N-cyclopropyl-2-methyl-4-(6-{[(1E)-2,3,3-trifluoro-4-hydroxybut-1-en-1-yl]oxy}-8-[(3,3,3-trifluoropropyl)amino]imidazo[1,2-b]pyridazin-3-yl)benzamide], the IC50 was 1 nM.

`COC(=O)c1cc(F)ccc1-c1cc(NCC(C)(C)O)c2ncc(-c3ccc(C(=O)NC4CC4)c(C)c3)n2n1` [Example 279, 2-{3-[4-(cyclopropylcarbamoyl)-3-methylphenyl]-8-[(2-hydroxy-2-methylpropyl)amino]imidazo[1,2-b]pyridazin-6-yl}-5-fluoro-benzoic acid methyl ester]: the IC50 is 148 nM.
